Measurements: BindingDB's records for patent US11826435 (University of Saskatchewan, 2023)

Biological target: T1, Lysosomal acid glucosylceramidase (Homo sapiens, UniProt P04062)
T1 sequence (P04062 whole entry): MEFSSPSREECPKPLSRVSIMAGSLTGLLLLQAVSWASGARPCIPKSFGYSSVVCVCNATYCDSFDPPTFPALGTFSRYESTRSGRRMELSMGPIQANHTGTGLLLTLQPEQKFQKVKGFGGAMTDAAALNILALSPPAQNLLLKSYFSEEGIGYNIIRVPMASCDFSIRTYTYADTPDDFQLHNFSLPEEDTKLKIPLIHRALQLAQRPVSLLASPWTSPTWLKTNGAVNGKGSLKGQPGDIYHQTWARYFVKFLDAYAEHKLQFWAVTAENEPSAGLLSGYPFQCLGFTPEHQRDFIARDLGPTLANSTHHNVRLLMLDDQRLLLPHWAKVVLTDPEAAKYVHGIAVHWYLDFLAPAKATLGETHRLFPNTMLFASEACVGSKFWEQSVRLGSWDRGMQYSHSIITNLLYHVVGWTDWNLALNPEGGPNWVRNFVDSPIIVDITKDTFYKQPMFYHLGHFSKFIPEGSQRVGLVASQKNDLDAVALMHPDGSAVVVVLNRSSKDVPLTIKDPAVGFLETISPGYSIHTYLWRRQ
Experiment: Enzyme Kinetics - Measuring Inactivation Rates of Inhibitors
Experimental: Inactivation solutions contained a final concentration of 16.55 nM of Cerezyme (Recombinant GCase) in 200 μL of Reaction Buffer (50 mM acetate, 0.2% v/v Triton X-100, 0.3% w/v sodium taurocholate, pH 5.5). The Cerezyme was collected from leftover patient vials and had approximately 8275 nM in the vial. […] Once the inhibitor was added this was considered time=0 minutes. Meanwhile a 96 well plate inside a Biotek Synergy 4 hybrid multi-mode reader at 37 C. was being incubated. In the wells of the plate were waiting a high concentration ([…]) of 2,4-DNP-β-Glc substrate in 180 μL of Reaction Buffer. As the inhibitor inactivation was occurring, 20 μL aliquots were taken from the inactivation solutions and diluted on the plate containing the substrate bringing the final concentration of the substrate to […]. Once all the aliquots were added the solution in the wells was measured for absorbance at 400 nm for 8 minutes. At this time the measurements were paused and the next set of aliquots were taken to see how residual enzyme activity changes over time.

O=[N+]([O-])c1ccc(OC2O[C@H](CO)[C@@H](O)[C@H](O)[C@H]2F)c([N+](=O)[O-])c1 (some centres not stated) [US11826435, Compound 1.1]
IC50: > 1000 µM

O[C@H]1[C@H](O)[C@@H](O)[C@@H]2O[C@@H]2[C@@H]1O [US11826435, Compound 1.2]
Ki: 140 µM
